Like-named read-outs stand apart in the source and are kept apart here.
Target: T1, N-type calcium channel (Homo sapiens, UniProt Q00975)
T1 construct: expressed in transfected cells; host or cells: HEK 293
Experiment: Patch-Clamp blockade of voltage-dependent N-type calcium channels in recombinant HEK 293 cells
Format: cell-based
From the text: The antinociceptive activity of the compounds of this invention is based on a blockade of the voltage-dependent N-type calcium channels. This inhibiting activity is detected electrophysiologically by the Patch-Clamp technique (cf: Improved patch-clamp techniques for high resolution current recording from cells and cell-free membrane patches; Hamill et al.; Pflügers Archiv, 391, 1981, 85-100) on recombinant HEK 293 cells which express the N-type calcium channel.

[1] = N-type calcium channel, Patch-Clamp, HEK 293 cells, read-out: IC50 value
[2] = Patch-Clamp technique, recombinant HEK 293 cells which express the N-type calcium channel, read-out: IC50 values

T1 sequence (Q00975 whole entry): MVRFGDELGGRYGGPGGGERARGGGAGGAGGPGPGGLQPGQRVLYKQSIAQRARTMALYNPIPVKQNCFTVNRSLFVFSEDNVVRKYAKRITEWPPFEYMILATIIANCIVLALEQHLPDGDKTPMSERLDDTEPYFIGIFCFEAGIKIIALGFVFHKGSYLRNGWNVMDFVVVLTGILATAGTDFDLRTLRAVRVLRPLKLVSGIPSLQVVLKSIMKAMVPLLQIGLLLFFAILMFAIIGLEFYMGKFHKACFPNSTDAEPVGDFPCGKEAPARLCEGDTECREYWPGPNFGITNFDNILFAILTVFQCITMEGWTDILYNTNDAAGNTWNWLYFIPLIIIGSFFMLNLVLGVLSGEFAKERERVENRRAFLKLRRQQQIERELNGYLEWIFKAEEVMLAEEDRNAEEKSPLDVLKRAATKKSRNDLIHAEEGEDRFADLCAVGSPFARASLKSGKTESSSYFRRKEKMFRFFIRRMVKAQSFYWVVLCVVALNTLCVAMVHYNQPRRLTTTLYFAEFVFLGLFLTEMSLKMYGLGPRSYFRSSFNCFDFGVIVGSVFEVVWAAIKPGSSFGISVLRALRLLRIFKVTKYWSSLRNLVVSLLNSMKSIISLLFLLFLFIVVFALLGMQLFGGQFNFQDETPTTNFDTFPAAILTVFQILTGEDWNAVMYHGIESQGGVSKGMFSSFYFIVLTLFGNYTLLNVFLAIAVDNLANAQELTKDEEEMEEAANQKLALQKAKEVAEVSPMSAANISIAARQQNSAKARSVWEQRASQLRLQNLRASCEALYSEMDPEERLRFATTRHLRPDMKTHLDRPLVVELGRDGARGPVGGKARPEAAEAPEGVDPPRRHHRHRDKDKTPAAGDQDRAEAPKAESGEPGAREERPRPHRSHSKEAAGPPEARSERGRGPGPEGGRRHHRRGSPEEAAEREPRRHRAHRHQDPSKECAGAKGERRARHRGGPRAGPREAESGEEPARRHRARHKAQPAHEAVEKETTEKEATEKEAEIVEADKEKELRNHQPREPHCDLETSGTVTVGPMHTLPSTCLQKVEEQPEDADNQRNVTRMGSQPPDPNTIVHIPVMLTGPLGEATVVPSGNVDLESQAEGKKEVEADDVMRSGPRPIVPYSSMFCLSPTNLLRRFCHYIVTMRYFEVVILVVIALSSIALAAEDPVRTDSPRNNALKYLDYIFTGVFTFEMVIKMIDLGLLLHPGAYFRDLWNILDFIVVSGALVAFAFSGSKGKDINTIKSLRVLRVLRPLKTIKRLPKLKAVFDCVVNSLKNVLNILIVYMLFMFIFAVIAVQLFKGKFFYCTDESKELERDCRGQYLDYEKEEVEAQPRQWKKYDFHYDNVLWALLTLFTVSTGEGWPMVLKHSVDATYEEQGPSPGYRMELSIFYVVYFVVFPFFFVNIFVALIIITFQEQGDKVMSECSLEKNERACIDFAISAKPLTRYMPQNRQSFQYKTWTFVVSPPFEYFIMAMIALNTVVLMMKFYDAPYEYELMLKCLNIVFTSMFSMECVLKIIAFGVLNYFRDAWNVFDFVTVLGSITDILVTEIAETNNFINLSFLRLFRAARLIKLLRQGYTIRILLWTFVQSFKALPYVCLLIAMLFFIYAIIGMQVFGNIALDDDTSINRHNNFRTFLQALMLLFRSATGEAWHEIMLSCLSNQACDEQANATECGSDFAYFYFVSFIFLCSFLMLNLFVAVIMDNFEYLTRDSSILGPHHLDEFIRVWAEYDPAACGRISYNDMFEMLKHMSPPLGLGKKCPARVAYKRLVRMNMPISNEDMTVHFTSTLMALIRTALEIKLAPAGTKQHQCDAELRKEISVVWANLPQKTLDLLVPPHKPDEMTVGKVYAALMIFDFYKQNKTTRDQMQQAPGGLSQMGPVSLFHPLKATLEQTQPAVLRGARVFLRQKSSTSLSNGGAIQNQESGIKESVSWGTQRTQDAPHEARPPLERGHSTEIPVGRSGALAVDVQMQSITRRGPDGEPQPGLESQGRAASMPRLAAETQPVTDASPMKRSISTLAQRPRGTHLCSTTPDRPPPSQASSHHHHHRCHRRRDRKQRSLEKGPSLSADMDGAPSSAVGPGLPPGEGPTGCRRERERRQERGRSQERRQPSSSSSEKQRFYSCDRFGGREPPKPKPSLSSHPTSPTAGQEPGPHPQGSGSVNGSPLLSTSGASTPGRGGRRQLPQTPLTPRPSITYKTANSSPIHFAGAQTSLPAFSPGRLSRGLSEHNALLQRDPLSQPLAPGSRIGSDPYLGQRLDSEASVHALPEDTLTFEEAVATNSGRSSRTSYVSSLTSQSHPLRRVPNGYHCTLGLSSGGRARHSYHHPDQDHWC
T1 sequence (P54289 25-956 partner limits assumed): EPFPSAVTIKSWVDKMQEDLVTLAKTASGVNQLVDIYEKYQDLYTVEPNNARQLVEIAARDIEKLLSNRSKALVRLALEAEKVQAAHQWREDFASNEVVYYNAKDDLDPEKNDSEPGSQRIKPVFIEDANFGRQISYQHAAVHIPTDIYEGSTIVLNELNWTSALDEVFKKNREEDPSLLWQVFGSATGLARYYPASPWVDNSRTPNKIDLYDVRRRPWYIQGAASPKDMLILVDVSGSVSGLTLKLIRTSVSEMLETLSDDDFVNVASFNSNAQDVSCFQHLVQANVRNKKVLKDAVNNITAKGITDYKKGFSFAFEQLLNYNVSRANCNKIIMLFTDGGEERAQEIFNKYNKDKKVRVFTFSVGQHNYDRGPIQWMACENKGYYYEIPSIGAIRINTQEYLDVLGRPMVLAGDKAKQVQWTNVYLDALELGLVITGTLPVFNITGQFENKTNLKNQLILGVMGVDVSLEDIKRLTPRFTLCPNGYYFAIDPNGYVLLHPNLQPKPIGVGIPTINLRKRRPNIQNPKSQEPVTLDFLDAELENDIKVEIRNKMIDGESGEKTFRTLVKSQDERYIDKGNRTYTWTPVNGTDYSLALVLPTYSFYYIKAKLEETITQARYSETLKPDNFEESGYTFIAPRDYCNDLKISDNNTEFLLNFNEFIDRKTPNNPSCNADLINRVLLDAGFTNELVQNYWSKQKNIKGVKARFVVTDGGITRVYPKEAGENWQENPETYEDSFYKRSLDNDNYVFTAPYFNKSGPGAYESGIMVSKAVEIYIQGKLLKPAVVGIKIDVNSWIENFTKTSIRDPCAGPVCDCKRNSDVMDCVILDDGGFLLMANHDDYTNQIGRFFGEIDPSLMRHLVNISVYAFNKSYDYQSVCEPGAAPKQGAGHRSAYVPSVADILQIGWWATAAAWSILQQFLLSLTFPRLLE
T1 sequence (P54289 957-1103 partner limits assumed): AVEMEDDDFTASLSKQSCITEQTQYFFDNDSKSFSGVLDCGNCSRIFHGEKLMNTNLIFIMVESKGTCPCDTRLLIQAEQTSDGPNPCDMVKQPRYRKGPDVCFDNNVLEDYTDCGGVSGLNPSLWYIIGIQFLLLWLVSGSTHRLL
T1 sequence (P54284 whole entry partner): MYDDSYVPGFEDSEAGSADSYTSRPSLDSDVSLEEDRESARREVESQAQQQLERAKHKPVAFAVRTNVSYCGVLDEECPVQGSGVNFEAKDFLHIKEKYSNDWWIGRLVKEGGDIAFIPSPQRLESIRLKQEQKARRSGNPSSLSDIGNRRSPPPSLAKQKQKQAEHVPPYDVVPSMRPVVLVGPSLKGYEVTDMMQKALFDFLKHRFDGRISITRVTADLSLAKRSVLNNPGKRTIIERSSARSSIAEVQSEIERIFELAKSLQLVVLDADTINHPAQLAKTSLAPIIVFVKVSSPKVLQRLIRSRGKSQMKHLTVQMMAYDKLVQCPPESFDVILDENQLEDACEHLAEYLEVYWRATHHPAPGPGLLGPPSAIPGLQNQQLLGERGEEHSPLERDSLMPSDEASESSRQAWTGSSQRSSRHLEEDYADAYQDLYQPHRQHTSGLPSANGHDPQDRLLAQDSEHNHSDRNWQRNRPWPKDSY

Compound	IC50 [1] [µM]	IC50 [2] [µM]	further results
CNc1cc(-c2ccncc2)nc2ccc3c(ncn3C)c12 [Example 1, 3-methyl-9-methylamino-7-(pyridin-4-yl)-3H-imidazo[4,5-f]quinoline]	9.9		
CNc1cc(-c2cccc(F)c2)nc2ccc3c(ncn3C)c12 [Example 2, 7-(3-fluorophenyl)-3-methyl-9-methylamino-3H-imidazo [4,5-f]quinoline]	15.2		
CN(C)c1cc(-c2cccc(F)c2)nc2ccc3c(ncn3C)c12 [Example 3, 9-dimethylamino-7-(3-fluorophenyl)-3-methyl-3H-imidazo [4,5-f]quinoline]			IC50 value (N-type calcium channel, Patch-Clamp, HEK 293 cells): biphasic
Cc1nc2c(ccc3nc(-c4cccc(F)c4)cc(N(C)C)c32)s1 [Example 4, 9-dimethylamino-7-(3-fluorophenyl)-2-methyl-thiazolo[4,5-f]quinoline]		3.6	

Second part, led by results:

IC50 [1] [µM]	IC50 [2] [µM]	Compound	further results
14.3		CN(C)c1cc(-c2cccc(F)c2)nc2ccc3ncsc3c12 [Example 5, 9-dimethylamino-7-(3-fluorophenyl)-thiazolo[5,4-f]quinoline]	
	2	CNc1cc(-c2cccc(F)c2)nc2ccc3sc(C)nc3c12 [Example 6, 7-(3-fluorophenyl)-2-methyl-9-methylamino thiazolo[4,5-f]quinoline]	

From patent publication US20040214833A1, “Tricyclic heteroaromatic compounds” (Boehringer Ingelheim International GmbH, priority 2003, published 2004)
